The structures appear in SMILES notation.

This is an account of results in ChEMBL document CHEMBL5532675, “Discovery of 4-Ethoxy-6-chloro-5-azaindazoles as Novel PDE4 Inhibitors for the Treatment of Alcohol Use Disorder and Alcoholic Liver Diseases” (J Med Chem, 2024).

Data set [1] concerns the target 3',5'-cyclic-AMP phosphodiesterase 4B (Homo sapiens, UniProt Q07343). Description: Inhibition of PDE4B1 (unknown origin) using FAM-cyclic-3',5'-AMP as substrate incubated for 1 hrs by fluorescence polarization based IMAP assay.
The target in data set [2] is T1, 3',5'-cyclic-AMP phosphodiesterase 4D (Homo sapiens, UniProt Q08499). Briefly: Inhibition of PDE4D7 (unknown origin) using FAM-cyclic-3',5'-AMP as substrate incubated for 1 hrs by fluorescence polarization based IMAP assay.
The target in data set [3] is T1, 3',5'-cyclic-AMP phosphodiesterase 4D. Briefly: Inhibition of PDE4D7 (unknown origin) using FAM-cyclic-3',5'-AMP as substrate at 100 nM incubated for 1 hrs by fluorescence polarization based IMAP assay relative to control.
For data set [4] the target is unchanged. Description: Inhibition of PDE4D7 (unknown origin) using FAM-cyclic-3',5'-AMP as substrate at 10 nM incubated for 1 hrs by fluorescence polarization based IMAP assay relative to control.
The next data set has as its system SH-SY5Y. Briefly: Cytotoxicity against human SH-SY5Y cells assessed as reduction in cell viability incubated for 48 hrs by MTT assay. It counts as toxicity, cell-based.
The next data set deals with HT-22. Briefly: Cytotoxicity against mouse HT-22 cells assessed as reduction in cell viability incubated for 48 hrs by MTT assay. The data set is classed as toxicity, cell-based. As to conditions: ht-22, 48 h.
Data set [5] can be described thus: Chemical stability of compound in aqueous solution at pH <6 measured after 48 hrs. It counts as physicochemical. As to conditions: buffer.
Data set [6] can be described thus: Chemical stability of compound in aqueous solution at pH >10 measured after 48 hrs. As to conditions: buffer. The data set is classed as physicochemical.
Data set [7] can be described thus: Selectivity ratio for inhibition of PDE9A (unknown origin) using FAM-cyclic-3',5'-AMP as substrate to inhibition of PDE4B1 (unknown origin) using FAM-cyclic-3',5'-AMP as substrate.
Data set [8] in a line: Selectivity ratio for inhibition of PDE8A1 (unknown origin) using FAM-cyclic-3',5'-AMP as substrate to inhibition of PDE4B1 (unknown origin) using FAM-cyclic-3',5'-AMP as substrate.
Data set [9] addresses cGMP-inhibited 3',5'-cyclic phosphodiesterase 3B (Homo sapiens) (UniProt Q13370). Briefly: Inhibition of PDE3B (unknown origin) using FAM-cyclic-3',5'-AMP as substrate at 10 uM incubated for 1 hrs by fluorescence polarization based IMAP assay relative to control.
The target in data set [10] is High affinity 3',5'-cyclic-AMP phosphodiesterase 7A (Homo sapiens) (UniProt Q13946). Description: Inhibition of PDE7A (unknown origin) using FAM-cyclic-3',5'-AMP as substrate at 10 uM incubated for 1 hrs by fluorescence polarization based IMAP assay relative to control.
The target in data set [11] is High affinity cAMP-specific and IBMX-insensitive 3',5'-cyclic phosphodiesterase 8A (Homo sapiens) (UniProt O60658). Briefly: Inhibition of PDE8A1 (unknown origin) using FAM-cyclic-3',5'-AMP as substrate at 10 uM incubated for 1 hrs by fluorescence polarization based IMAP assay relative to control.
For data set [12], the target named is High affinity cGMP-specific 3',5'-cyclic phosphodiesterase 9A (Homo sapiens) (UniProt O76083). Description: Inhibition of PDE9A (unknown origin) using FAM-cyclic-3',5'-AMP as substrate at 10 uM incubated for 1 hrs by fluorescence polarization based IMAP assay relative to control.
Data set [13] can be described thus: Selectivity ratio for inhibition of PDE3B (unknown origin) using FAM-cyclic-3',5'-AMP as substrate to inhibition of PDE4D7 (unknown origin) using FAM-cyclic-3',5'-AMP as substrate.
Data set [14] can be described thus: Selectivity ratio for inhibition of PDE7A (unknown origin) using FAM-cyclic-3',5'-AMP as substrate to inhibition of PDE4D7 (unknown origin) using FAM-cyclic-3',5'-AMP as substrate.
Data set [15] is described as follows: Selectivity ratio for inhibition of PDE8A1 (unknown origin) using FAM-cyclic-3',5'-AMP as substrate to inhibition of PDE4D7 (unknown origin) using FAM-cyclic-3',5'-AMP as substrate.
Data set [16] can be described thus: Selectivity ratio for inhibition of PDE9A (unknown origin) using FAM-cyclic-3',5'-AMP as substrate to inhibition of PDE4D7 (unknown origin) using FAM-cyclic-3',5'-AMP as substrate.
The nature of data set [17]: Selectivity ratio for inhibition of PDE3B (unknown origin) using FAM-cyclic-3',5'-AMP as substrate to inhibition of PDE4B1 (unknown origin) using FAM-cyclic-3',5'-AMP as substrate.
The nature of data set [18]: Selectivity ratio for inhibition of PDE7A (unknown origin) using FAM-cyclic-3',5'-AMP as substrate to inhibition of PDE4B1 (unknown origin) using FAM-cyclic-3',5'-AMP as substrate.
Data set [19] can be described thus: Toxicity in ketamine/xylazine-induced anesthetic C57BL/6J mouse model assessed as emetogenic potential by measuring reduction in anesthesia duration at 5 mg/kg, po preadministered with compound for 15 mins followed by ketamine/xylazine administration. To be noted: in vivo, 0.25 h. It counts as organism-based.
Data set [20] can be described thus: Oral bioavailability in Sprague-Dawley rat at 10 mg/kg measured after 48 hrs by LC-MS/MS analysis. As to conditions: in vivo. The data set is classed as ADME, organism-based.
Data set [21] can be described thus: Half-life in Sprague-Dawley rat at 10 mg/kg, po measured after 48 hrs by LC-MS/MS analysis. As to conditions: in vivo. The data set is classed as ADME, organism-based.

T1 sequence (Q08499 whole entry): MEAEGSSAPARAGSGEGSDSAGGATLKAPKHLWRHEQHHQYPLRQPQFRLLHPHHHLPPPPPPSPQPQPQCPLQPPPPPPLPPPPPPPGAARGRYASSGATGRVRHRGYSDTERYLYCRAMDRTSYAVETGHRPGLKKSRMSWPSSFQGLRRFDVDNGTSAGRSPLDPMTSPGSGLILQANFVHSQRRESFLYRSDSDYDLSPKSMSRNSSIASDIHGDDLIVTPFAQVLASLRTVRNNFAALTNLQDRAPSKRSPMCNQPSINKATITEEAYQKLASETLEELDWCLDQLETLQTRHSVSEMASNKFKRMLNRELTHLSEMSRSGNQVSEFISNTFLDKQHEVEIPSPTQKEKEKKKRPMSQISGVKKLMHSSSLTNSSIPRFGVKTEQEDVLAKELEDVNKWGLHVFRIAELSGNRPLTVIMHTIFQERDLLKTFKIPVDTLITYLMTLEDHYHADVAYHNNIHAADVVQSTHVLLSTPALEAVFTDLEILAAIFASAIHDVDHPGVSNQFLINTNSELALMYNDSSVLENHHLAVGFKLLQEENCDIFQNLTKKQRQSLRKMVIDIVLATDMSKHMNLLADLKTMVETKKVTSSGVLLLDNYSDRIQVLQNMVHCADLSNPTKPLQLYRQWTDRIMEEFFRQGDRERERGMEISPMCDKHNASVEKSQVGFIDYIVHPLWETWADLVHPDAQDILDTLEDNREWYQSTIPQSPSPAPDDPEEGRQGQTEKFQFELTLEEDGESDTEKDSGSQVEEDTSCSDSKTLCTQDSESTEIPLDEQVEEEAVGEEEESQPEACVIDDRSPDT
Sequence of High affinity cGMP-specific 3',5'-cyclic phosphodiesterase 9A (Homo sapiens) (O76083 whole entry): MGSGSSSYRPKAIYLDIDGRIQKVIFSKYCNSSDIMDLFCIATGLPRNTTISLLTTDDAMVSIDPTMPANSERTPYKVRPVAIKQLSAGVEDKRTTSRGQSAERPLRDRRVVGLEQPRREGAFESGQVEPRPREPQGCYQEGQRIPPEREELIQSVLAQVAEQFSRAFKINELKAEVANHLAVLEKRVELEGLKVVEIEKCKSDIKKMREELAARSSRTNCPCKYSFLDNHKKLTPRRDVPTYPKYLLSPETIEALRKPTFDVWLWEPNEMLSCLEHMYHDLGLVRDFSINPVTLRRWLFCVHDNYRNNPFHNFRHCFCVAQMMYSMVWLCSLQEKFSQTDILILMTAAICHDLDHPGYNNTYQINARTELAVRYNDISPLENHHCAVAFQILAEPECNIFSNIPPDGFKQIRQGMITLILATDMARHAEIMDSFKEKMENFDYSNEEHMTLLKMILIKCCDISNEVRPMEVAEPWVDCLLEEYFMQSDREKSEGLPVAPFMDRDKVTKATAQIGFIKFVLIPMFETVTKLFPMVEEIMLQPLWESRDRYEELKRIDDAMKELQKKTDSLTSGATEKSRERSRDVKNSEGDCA
Sequence of High affinity 3',5'-cyclic-AMP phosphodiesterase 7A (Homo sapiens) (Q13946 whole entry): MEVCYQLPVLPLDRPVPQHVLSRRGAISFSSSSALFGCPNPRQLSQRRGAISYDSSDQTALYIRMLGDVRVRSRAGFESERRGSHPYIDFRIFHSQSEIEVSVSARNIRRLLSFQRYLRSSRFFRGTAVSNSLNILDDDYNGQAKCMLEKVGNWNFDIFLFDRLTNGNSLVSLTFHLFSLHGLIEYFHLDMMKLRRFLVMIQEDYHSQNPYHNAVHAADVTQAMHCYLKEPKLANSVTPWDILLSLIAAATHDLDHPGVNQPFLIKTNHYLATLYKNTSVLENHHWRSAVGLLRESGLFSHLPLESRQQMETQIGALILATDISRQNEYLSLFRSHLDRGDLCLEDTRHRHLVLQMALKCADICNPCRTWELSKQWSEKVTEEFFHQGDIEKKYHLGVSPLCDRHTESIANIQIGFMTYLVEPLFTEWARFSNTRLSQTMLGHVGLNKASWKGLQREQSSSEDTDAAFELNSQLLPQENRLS
Sequence of High affinity cAMP-specific and IBMX-insensitive 3',5'-cyclic phosphodiesterase 8A (Homo sapiens) (O60658 whole entry): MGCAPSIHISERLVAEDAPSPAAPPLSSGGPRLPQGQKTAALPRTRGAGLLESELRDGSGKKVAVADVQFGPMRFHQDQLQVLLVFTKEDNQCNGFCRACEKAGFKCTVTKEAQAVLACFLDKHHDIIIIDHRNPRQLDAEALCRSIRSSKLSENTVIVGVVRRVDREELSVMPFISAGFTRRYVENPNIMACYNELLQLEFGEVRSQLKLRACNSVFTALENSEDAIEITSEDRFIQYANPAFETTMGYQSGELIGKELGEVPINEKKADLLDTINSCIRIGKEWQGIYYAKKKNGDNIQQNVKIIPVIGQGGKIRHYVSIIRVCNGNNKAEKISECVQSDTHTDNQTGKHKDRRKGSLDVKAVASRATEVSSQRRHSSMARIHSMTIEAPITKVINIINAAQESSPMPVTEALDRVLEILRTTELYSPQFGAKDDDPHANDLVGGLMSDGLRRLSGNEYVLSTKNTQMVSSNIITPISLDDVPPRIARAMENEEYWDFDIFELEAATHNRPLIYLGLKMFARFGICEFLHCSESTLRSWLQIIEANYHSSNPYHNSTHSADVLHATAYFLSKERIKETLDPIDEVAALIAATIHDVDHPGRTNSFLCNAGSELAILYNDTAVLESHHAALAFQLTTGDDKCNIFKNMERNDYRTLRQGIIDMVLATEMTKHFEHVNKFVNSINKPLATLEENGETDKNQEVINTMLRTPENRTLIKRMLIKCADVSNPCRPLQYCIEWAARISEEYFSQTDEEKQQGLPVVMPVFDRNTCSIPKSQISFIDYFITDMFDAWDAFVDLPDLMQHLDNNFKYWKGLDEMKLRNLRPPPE
Sequence of 3',5'-cyclic-AMP phosphodiesterase 4B (Q07343 whole entry): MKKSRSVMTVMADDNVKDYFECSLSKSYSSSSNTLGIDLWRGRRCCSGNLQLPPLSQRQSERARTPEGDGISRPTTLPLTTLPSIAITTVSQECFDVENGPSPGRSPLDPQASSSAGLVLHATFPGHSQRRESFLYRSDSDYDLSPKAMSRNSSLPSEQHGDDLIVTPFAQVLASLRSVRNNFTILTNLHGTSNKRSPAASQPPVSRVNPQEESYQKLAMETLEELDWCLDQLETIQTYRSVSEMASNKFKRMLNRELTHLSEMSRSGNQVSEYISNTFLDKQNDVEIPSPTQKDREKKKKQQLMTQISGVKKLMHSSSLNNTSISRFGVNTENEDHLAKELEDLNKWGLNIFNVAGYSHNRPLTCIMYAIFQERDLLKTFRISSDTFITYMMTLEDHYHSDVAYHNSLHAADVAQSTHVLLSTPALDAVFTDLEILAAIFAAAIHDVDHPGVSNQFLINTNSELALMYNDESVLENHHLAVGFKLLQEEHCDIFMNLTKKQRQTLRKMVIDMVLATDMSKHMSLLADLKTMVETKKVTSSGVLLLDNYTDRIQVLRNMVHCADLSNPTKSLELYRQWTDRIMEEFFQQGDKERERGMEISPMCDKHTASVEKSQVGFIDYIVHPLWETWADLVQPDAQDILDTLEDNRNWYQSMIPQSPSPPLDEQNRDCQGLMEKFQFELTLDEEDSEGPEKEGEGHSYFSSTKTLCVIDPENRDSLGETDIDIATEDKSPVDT
Sequence of cGMP-inhibited 3',5'-cyclic phosphodiesterase 3B (Homo sapiens) (Q13370 whole entry, looked up): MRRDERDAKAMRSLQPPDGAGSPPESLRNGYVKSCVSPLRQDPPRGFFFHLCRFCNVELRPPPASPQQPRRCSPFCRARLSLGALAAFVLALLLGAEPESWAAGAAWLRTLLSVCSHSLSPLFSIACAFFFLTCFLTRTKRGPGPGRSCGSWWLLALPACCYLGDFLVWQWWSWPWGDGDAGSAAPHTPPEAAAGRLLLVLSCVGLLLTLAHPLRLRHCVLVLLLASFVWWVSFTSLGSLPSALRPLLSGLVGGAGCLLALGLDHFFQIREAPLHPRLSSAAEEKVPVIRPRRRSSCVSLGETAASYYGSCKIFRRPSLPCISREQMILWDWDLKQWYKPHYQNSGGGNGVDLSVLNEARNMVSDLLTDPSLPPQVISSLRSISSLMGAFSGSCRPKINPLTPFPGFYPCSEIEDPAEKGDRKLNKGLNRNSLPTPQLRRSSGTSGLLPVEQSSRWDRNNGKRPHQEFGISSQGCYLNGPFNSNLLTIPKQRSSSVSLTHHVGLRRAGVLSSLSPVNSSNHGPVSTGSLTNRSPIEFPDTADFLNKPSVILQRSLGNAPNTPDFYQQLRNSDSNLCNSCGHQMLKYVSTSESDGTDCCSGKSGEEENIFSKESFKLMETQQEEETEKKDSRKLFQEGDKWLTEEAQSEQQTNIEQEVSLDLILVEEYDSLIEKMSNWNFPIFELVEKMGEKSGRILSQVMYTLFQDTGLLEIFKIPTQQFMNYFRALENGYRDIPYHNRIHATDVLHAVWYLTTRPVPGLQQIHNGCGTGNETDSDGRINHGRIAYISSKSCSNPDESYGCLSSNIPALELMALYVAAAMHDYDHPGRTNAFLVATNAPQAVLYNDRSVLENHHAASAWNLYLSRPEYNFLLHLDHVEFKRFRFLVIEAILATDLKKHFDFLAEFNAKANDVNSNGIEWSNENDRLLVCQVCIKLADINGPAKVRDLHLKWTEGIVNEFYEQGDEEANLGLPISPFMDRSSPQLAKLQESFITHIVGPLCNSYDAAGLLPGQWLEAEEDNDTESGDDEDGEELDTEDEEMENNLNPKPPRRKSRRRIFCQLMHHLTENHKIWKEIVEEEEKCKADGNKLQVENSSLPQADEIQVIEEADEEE

On to `CCOc1nc(Cl)cc2nn(CCC(=O)O)cc12`, for which the IC50 in data set [1] came out at 35.2 nM; in data set [2], 25.6 nM. Moreover, the inhibition is 69% in data set [3]; 35% in data set [4]; 7% in data set [9]; 12% in [10]; 7% in data set [11]; 6% in [12]. Moreover, the Activity result with SH-SY5Y was “Non-Toxic”; with HT-22 it was “Non-Toxic”; in data set [19], “Toxic”. Also, the Stability result in data set [5] and in data set [6] was “Stable” each time. Besides, the Selectivity ratio in data set [7], in data set [8], in data set [13], in data set [14], in data set [15] and in data set [16] was more than 284 throughout. In addition, the Selectivity ratio in data set [17] and in data set [18] was more than 284 each time.

On to `CCNc1cc(C(=O)C2CCCC2)ccc1OC`, for which the bioavailability in data set [20] was 43%. The half-life in data set [21] is 59.4 min.
